pIC50: −log10 of the molar value. Starred links: 1 amine or outer side, 2 acyl side, 3 side chain; linkers in the order of their positions; H or OH if unused. Residues, ends and D or L forms follow the SMILES beside them. *: point of attachment. X1 = CC[C@@]1(O)C(=O)OCc2c1cc1n(c2=O)Cc2c-1nc1cc(F)c(C)c3c1c2[C@@H](NC(=O)CNC(=O)[C@H](Cc1ccccc1)NC(=O)CNC(=O)CNC(=O)CCCCC(=O)*)CC3; Pteroyl = Nc1nc2ncc(CNc3ccc(C(=O)*)cc3)nc2c(=O)[nH]1; γGlu = O=C(O)[C@H](CCC(=O)[*:2])N[*:1]

The nature of series [1]: Safety evaluation in ICR mice. The class given is in vivo. As to the method: Experiment purpose: Safety evaluation of CR194AX in ICR mice
Sample preparation: An appropriate amount of CR194AX was weighed and dissolved in PBS, and an appropriate amount of alkaline solution was added to formulate a sample mother solution with a neutral pH, which was filtered and diluted with filtered PBS to a sample solution with a working concentration for later use.
Experimental design: ICR mice (female, 6-8 weeks old, weighing about 25 g) were randomly grouped according to body weight, and the administration was started on the first day of grouping. The dosage was adjusted according to the latest body weight of the mice, and the administration was performed via tail vein injection at an administration volume of 10 μl/g. After grouping and administration, the effects of the drugs on the normal behaviors of the animals, including the activity, food intake and drinking status, body weight, eyes, hair, feces, secretions and other abnormalities of the experimental animals, were tested. The body weight of the mice was measured twice a week and observed for 8 days after the last administration. At the end of the experiment, the liver and spleen were weighed, and the liver, spleen, lung, kidney and stomach were taken out and placed in 10% formalin neutral fixative for HE analysis. Sample preparation: An appropriate amount of the compound was weighed and dissolved in PBS, and an appropriate amount of alkaline solution was added to formulate a sample mother solution with a neutral pH, which was filtered and diluted with filtered physiological saline to a sample solution with a working concentration for later use.

The test system of another series is MIA PaCa2 cells. The experiment in a line: Cell expansion inhibition assay (CCK-8, 72 h), Table 4. The class given is cell-based, human. The conditions noted are these: without expression of FOLR1, read-out: MIAPACA-2 IC50. The method, then:
(§1) Cell lines: HEK293T-FOLR1 (a stably transformed cell line overexpressing FOLR1), SK-BR-3 (human breast cancer cell with low expression of FOLR1) and MIA PaCa2 (human pancreatic cancer cell without expression of FOLR1).
(§2) Main reagents: 1640 folic acid-free medium, fetal bovine serum, penicillin-streptomycin solution, L-glutamine and CCK8.
(§3) (1) Cell plating: Cells were prepared in advance, digested with Trypsin, collected and counted. A complete cell culture medium was used to dilute SK-BR-3 cells to 3.0×10^4 cells/ml, HEK293T-FOLR1 cells to 1.5×10^4 cells/ml, and MIA PaCa-2 cells to 2.0×10^4 cells/ml. 100 μl of diluted cell solution was added to each well of 96-well plates, and negative and blank control wells were set on each plate. The 96-well plates added with the cells were placed in an incubator at 37° C., 5% CO2 for culturing overnight.
(§4) (2) Diluting and adding samples: The samples were serially diluted with medium (the starting concentration was 30 μM, 5-fold serial dilution), and a total of 10 concentration gradients were set. To each well of the 96-well plates that were cultured overnight, 50 μl of the diluted samples were added, with 3 replicate wells; negative controls and blank controls were set; and the plates were placed in an incubator at 37° C., 5% CO2 for culturing 72 h.
(§5) (3) Color development and reading plate: To each well, 15 μl (10% of the liquid volume in a well) of a color developing solution from CCK-8 was added; the plates were incubated at 37° C. for an appropriate time (try to keep the OD value in the range of 1.0-2.5); the covers of the 96-well plates were removed, and the plates were read at 450 nm on a microplate reader (Molecular Devices SpectraMax iD5).
(§6) (4) Data processing: The data was edited using SoftMax Pro 7.1 and a four-parameter fitting curve was plotted.

In series [2] the test system is HEK293T-FOLR1 cells. The series is described as above. The class given is cell-based, human. As to the method: as §1, §2, §3, §4, §5, §6
Series [3] relates to SK-BR-3 cells. Described as above. The class given is cell-based, human. As to the method:
as §1, §2, §3, §4, §5, §6

The next series has as its system HEK293T cells. The experiment in a line: Cell expansion inhibition assay (CCK-8, 72 h), Table 3. It counts as cell-based, human. The conditions noted are these: no visible FOLR1 expression. As to the method: (§7) Cell lines: HEK293T-FOLR1 (a stably transformed cell line overexpressing FOLR1), SK-BR-3 (human breast cancer cell) and HEK293T (human embryonic kidney cell).
as §2
(§8) (1) Cell plating: Cells were prepared in advance, digested with Trypsin, collected and counted. A complete cell culture medium was used to dilute HEK293T-FOLR1 and HEK293T cells to 6×10^3 cells/ml, and dilute SK-BR-3 cells to 1.5×10^4 cells/ml. 100 μl of diluted cell solution was added to each well of 96-well plates, and negative and blank control wells were set on each plate. The 96-well plates added with the cells were placed in an incubator at 37° C., 5% CO2 for culturing overnight.
as §4, §5, §6

Series [4] concerns HEK293T-FOLR1 cells. Described as above. The class given is cell-based, human. The conditions noted are these: FOLR1 high expression. The method, then: as §7, §2, §8, §4, §5, §6
The test system of series [5] is SK-BR-3 cells. Described as above. The conditions noted are these: FOLR1 low expression. It counts as cell-based, human. The method, then:
as §7, §2, §8, §4, §5, §6

Setting [6] is: 50 mg/kg, qw*3 and q3d*6, tail vein.

For the molecule `CC[C@@]1(O)C(=O)OCc2c1cc1n(c2=O)Cc2c-1nc1cc(F)c(C)c3c1c2[C@@H](NC(=O)CNC(=O)[C@H](Cc1ccccc1)NC(=O)CNC(=O)CNC(=O)CCCCC(=O)NCCCC[C@H](NC(=O)[C@H](CS)NC(=O)CC[C@H](NC(=O)c1ccc(NCc2cnc4nc(N)nc(O)c4n2)cc1)C(=O)O)C(=O)N[C@@H](CCC(=O)O)C(=O)N[C@@H](Cc1ccccc1)C(=O)N[C@@H](CC(C)C)C(=O)N[C@@H](Cc1c[nH]cn1)C(=O)N1CCC[C@H]1C(=O)N[C@@H](CO)C(=O)N[C@@H](CCCCN)C(=O)N[C@H](C(=O)N[C@@H](CC(=O)O)C(=O)N[C@@H](CC(C)C)C(=O)N1CCC[C@H]1C(=O)N[C@@H](CCCNC(=N)N)C(=O)O)C(C)C)CC3` [CR194AX] ({Pteroyl-γGlu}-CK(X1)EFLHPSKVDLPR-OH), in series [1] (25 mg/kg q3d*6, tail vein), the “average weight loss of the mice” value was at most 5%, the “mortality during the administration” value is on record as “no mice died” and the tolerance entry is given as “good tolerance”. In series [1] (setting [6]), the “average weight loss of the mice” value is recorded as at most 10%, the “mortality during the administration period” value is “no mice died” and the tolerance result is “good tolerance”. Besides, the “weights of the liver and spleen compared with the negative control group” value in series [1] (each administration group, end of experiment) is given as “no significant difference”.

By pIC50 is commonly meant −log10 of the IC50, conventionally taken in molar units. Turning to `CC[C@@]1(O)C(=O)OCc2c1cc1n(c2=O)Cc2c-1nc1cc(F)c(C)c3c1c2[C@@H](N)CC3` [Dx], the pIC50 is 8.26 with MIA PaCa2 cells; 9.00 in the series on HEK293T-FOLR1 cells [2]; 9.24 in the series with SK-BR-3 cells [3]; 8.95 with HEK293T cells; 8.99 in the series on HEK293T-FOLR1 cells [4]; 9.22 with SK-BR-3 cells [5].

As for `CC[C@@]1(O)C(=O)OCc2c1cc1n(c2=O)Cc2c-1nc1cc(F)c(C)c3c1c2[C@@H](NC(=O)CO)CC3` [Dxd], the figures for the pIC50 with MIA PaCa2 cells and with HEK293T-FOLR1 cells [2] were 6.96 and 8.78, respectively.

Regarding `CCc1c2c(nc3ccc(O)cc13)-c1cc3c(c(=O)n1C2)COC(=O)[C@]3(O)CC` [SN38], the pIC50 in the series with MIA PaCa2 cells is 8.15; in the series with HEK293T-FOLR1 cells [2] it was 9.03; with SK-BR-3 cells [3] it was 9.02.

(Values after patent publication US20240358843A1, “LIGAND-DRUG CONJUGATE AND USE THEREOF” (priority 2021, published 2024).)
